Data from paper PMC8282878, “Enhanced mosquitocidal efficacy of pyrethroid insecticides by nanometric emulsion preparation towards Culex pipiens larvae with biochemical and molecular docking studies” (Journal of the Egyptian Public Health Association, 2021).
Converted amounts (≈) assume the structure as drawn. “And” between values parts separate entries of the source, which are not always exact repeats. Equal values may be shown once. Read-outs that look alike come from different tables or passages of the source.

Legend:
Culex pipiens larvae = assay: Toxicity assay against C. pipiens larvae (WHO larval bioassay); assay type: in vivo; settings: for LC50: Culex pipiens
Source text: A susceptible strain of C. pipiens culture was obtained from Research Institute of Medical Entomology, Ministry of Health, Dokki, Giza, Egypt, and reared in High Institute of Public Health insectary, Alexandria University, Alexandria, Egypt. The Larvae were fed on biscuits [containing wheat flour and yeast powder mixed with milk powder (10: 1: 1, w/w, respectively)] until pupation in shallow trays containing 2–3 L of de-chlorinated water. Male adults were fed on 30% sucrose solution, and females were fed on pigeon blood four times a week in adult cages. […] The egg rafts were transferred from adult cages to white trays containing de-chlorinated water for egg hatch.
According to the World Health Organization, the larval bioassay was performed to compare the effect of nanoemulsions of selected pyrethroids with their active ingredient and commercial EC formulations on the C. pipiens larva recommendations. Third instar larvae were used in the evaluation by a direct contact method. The three forms of tested insecticides (technical, commercial EC formulation, and nanoemulsion) were tested to obtain the LC50 values. Technical pyrethroids were dissolved in DMSO and mixed with Tween-80 (0.05%), while the EC and nanoemulsions were dissolved in distilled water. Different concentrations ranging from 0.5 to 500 μg/L were tested in three replicates. Twenty C. pipiens larvae were put into plastic cups containing 100 mL of de-chlorinated water. The larvae were treated separately with Tween 80 or DMSO, and larvae without any treatment were maintained as control. The larvae’s morbidity and mortality were verified and recorded based on the larvae’s uncoordinated movement after investigating the cervical region with a needle.

[1] = system: adenosine triphosphatase (ATPase); assay: ATPase assay in homogenate of surviving treated larvae; assay type: biochemical, Culex pipiens; settings: larvae 24 h after treatment with LC50, untreated 1.40
Method: ATPase activity was performed according to Koch’s method. The reaction mixture, which contained 400 mM Na^+, 20 mM K^+, 5 mM Mg ^+, and 5 mM ATP, was prepared, and 200 μL of the crude enzyme was added to this mixture. Then, the volume was completed to 950 μL with Tris-HCl buffer (pH 7.4). After 10 min incubation at 37 °C, the reaction was stopped with 200 μL of TCA. A fresh color reagent (5 g ferrous sulfate in 10 mL ammonium molybdate solution prepared in 10 N sulfuric acid) was added to the reaction mixture. The absorbance of the developed blue color was measured at 740 nm, and the enzyme activity was calculated as OD740 min^−1 mg protein^−1.

carboxylesterase (CaE) = assay: CaE assay in homogenate of surviving treated larvae; assay type: biochemical, Culex pipiens; settings: larvae 24 h after treatment with LC50, untreated 3.31
Method: CaE activity was determined according to Van Asperen’s method, which used α-naphthyl acetate as a substrate. The assay mixture contained 50 μL of homogenate enzyme, 2.1 mL of 50 mM sodium phosphate buffer (pH 7.4), and 25 μL of 5 mM α-naphthyl acetate solution. The mixture incubation was done at 37 °C for 15 min. […] The absorption was measured at 555 nm. The enzyme activity was expressed as OD555 min^−1 mg protein^−1.

[2] = system: freshwater green alga Raphidocelis subcapitata; assay: whole plant or invertebrate; settings: for EC50: Raphidocelis subcapitata, 96 h, read-out: 96 h EC50 (95% confidence limits); for NOEC: no observed effect concentration on algal growth rate, NOEC = EC/10
Method: The freshwater green alga Raphidocelis subcapitata was obtained from the Faculty of Science; Mansoura University, Egypt. The stock culture was maintained in 250-mL borosilicate Erlenmeyer flasks containing culture medium at 24 ± 2 °C, under a continuous white fluorescent light of 3000–4000 lux, and manually shaken twice a day. The axenic culture was maintained for the provision of a continuous supply of “healthy” cells for the tests in a standard algal assay medium (AAM) as described in Miller et al..
An acute algal growth inhibition test was conducted using different concentrations of each insecticide in sterile AAM in a final volume of 50 mL. Tested concentrations of a pesticide were prepared from stock solutions on an arithmetic progression covering an expected range of toxicity from 0 to 90%. Stock solutions of technical insecticides were prepared in 1% DMSO and a corresponding control was included. Stock solutions of the EC and NE were prepared. Algal suspensions were exposed to different concentrations (0.0005–500 mg/L) prepared in the same medium of algae culture. All assays were conducted in triplicate. An inoculum of the exponentially-growing culture of R. subcapitata (harvested from 4–7 days stock culture) was prepared no more than 2–3 h before the beginning of the test. Initial cell density for the growth inhibition test was 10,000 cells/ml in both test and control flasks. Zero-time begins at inoculation of all flasks with the algal cells followed by incubation for 96 h in a temperature-controlled (25 °C) orbital shaker set at 100 rpm under continuous illumination via white fluorescent lamps. After 96 h, algal growth in terms of viable cell concentration was examined in a Neubauer hemocytometer using a phase-contrast microscope. Growth rate inhibition of the alga was used as the endpoint in this assessment. The percent inhibition values were calculated after 96 h, and the median effective concentration (EC50) values were calculated from the probit analysis with 95% confidence limits. The no observed effect concentration (NOEC) after algal exposure to each tested insecticide was calculated by the formula: NOEC = EC/10 [31]. Furthermore, the hazard statement of each tested insecticide was estimated according to UNECE GHS (2019).
Statistical analysis was performed using the IBM SPSS software version 25.0 (SPSS, Chicago, IL, USA). Mortality percentages were calculated for each treatment and corrected using Abbott’s equation [34]. Means and standard error (SE) were obtained from three independent replications performed for each treatment. The log dose-response (LdP) lines were used in the determination of the LC50 values for the mosquito’s bioassay and EC50 values for the algal bioassay according to the probit analysis. The least-square regression analysis was used to determine the 95% confidence limits. Analysis of variance (ANOVA) of the biochemical data was conducted and means property values were separated (p ≤ 0.05) with Student-Newman-Keuls (SNK).

[3] = system: glutathione-S-transferase (GST); settings: larvae 24 h after treatment with LC50, untreated 2.70
Method: The homogenate was centrifuged at 5000 rpm for 20 min at 4°C. The supernatant was used immediately for enzymatic assay or stored at – 20 °C. Total protein was determined according to Lowry et al.’s [23] method, and the concentrations were calculated by comparing with the standard curve of BSA.
GST assay was performed using reduced glutathione (2.5 mM) by Saint-Deniset et al. [26]. The assay mixture contained 100 μL of 1.5 mM CDNB, 200 μL of reduced glutathione, and 1.5 ml of pH 7.4 phosphate buffer. A total of 200 μL of the enzyme was added to the above mixture, shaken gently, and incubated for 15 min at 37 °C. The absorbance was recorded at 340 nm using a UV/Visible spectrophotometer (Alpha-1502. Laxco Inc, USA). One unit of enzyme activity attributed to the quantity of conjugated enzyme with 1 mmol of GSH per min. The enzyme activity was expressed as OD340 min^−1 mg protein^−1.

[4] = system: C. tritaeniorhynchus larvae; set-up: method as in PMID 28245893; settings: cited from earlier work
[5] = cited from earlier work

Structure (SMILES) | Slope ± SE of the concentration mortality regression line (Culex pipiens larvae; 24 h exposure) | Slope ± SE of the concentration mortality regression line (Culex pipiens larvae; 48 h exposure) | LC50 (Culex pipiens larvae; 24 h) [µg/mL] | LC50 (Culex pipiens larvae; 48 h) [µg/mL] | Specific activity ± SE, CaE (carboxylesterase (CaE)) [OD mg protein^−1 min] | EC50 [2] [µg/mL] | NOEC [2] [mg/L] | also measured
CC1(C)[C@H](C(=O)O[C@H](C#N)c2cccc(Oc3ccccc3)c2)[C@@H]1/C=C(\Cl)C(F)(F)F (racemic) [Lambda-cyhalothrin, lambda-cyhalothrin] | 1.47 ± 0.09 | 1.30 ± 0.09 | 0.027 (≈ 0.06 µM) | 0.018 (≈ 0.04 µM) | 1.51 ± 0.09 | 33.9 (≈ 75.3 µM) | 3.389 | Specific activity ± SE, ATPase ([1]; listed as Lambda-cyhalothrin T): 0.62 OD mg protein^−1 min and 0.62 ± 0.05 OD mg protein^−1 min; Specific activity ± SE, GST ([3]; listed as Lambda-cyhalothrin T): 4.57 OD mg protein^−1 min and 4.57 ± 0.48 OD mg protein^−1 min
CC1(C)C(C=C(Cl)Cl)C1C(=O)OC(C#N)c1cccc(Oc2ccccc2)c1 (stereo not drawn) [Alpha-cypermethrin, alpha-cypermethrin] | 2.47 ± 0.15 | – | 0.043 (≈ 0.103 µM) | 0.04 (≈ 0.0961 µM) | 5.06 ± 0.15 | 69.3 (≈ 167 µM) | 6.932 | Specific activity ± SE, ATPase ([1]; listed as Alpha-cypermethrin T): 0.86 OD mg protein^−1 min and 0.86 ± 0.02 OD mg protein^−1 min; Specific activity ± SE, GST ([3]; listed as Alpha-cypermethrin T): 5.31 OD mg protein^−1 min and 5.31 ± 0.70 OD mg protein^−1 min
CC1(C)[C@H](C(=O)O[C@H](C#N)c2cccc(Oc3ccccc3)c2)[C@@H]1C=C(Br)Br [Deltamethrin, deltamethrin] | 2.23 ± 0.13 | 2.12 ± 0.13 | – | – | – | > 100 | > 10 | LC50 (Culex pipiens larvae; third instar larvae, 24 h exposure, read-out: LC50): 0.028 µg/mL (≈ 0.0554 µM); LC50 (Culex pipiens larvae; third instar larvae, 48 h exposure, read-out: LC50): 0.025 µg/mL (≈ 0.0495 µM); Specific activity ± SE, ATPase ([1]; listed as Deltamethrin T): 0.69 OD mg protein^−1 min and 0.69 ± 0.02 OD mg protein^−1 min; Specific activity ± SE, CaE (carboxylesterase (CaE); listed as Deltamethrin T): 4.53 OD mg protein^−1 min and 3.44 ± 0.19 OD mg protein^−1 min; Specific activity ± SE, GST [3]: 5.49 ± 0.60 OD mg protein^−1 min
CC1(C)C(C=C(Cl)Cl)C1C(=O)OCc1cccc(Oc2ccccc2)c1 (centres unmarked) [Permethrin, permethrin] | 1.36 ± 0.089 | 1.26 ± 0.08 | 0.322 (≈ 0.823 µM) | 0.225 (≈ 0.575 µM) | 2.31 ± 0.09 | 14.9 (≈ 38.2 µM) | 1.494 | LC50 (Culex pipiens larvae; read-out: LC50 range): 0.127 to 0.322 µg/mL (≈ 0.325 to 0.823 µM); Specific activity ± SE, ATPase ([1]; listed as Permethrin T): 0.64 OD mg protein^−1 min and 0.64 ± 0.00 OD mg protein^−1 min; Specific activity ± SE, GST ([3]; listed as Permethrin T): 6.32 OD mg protein^−1 min and 6.32 ± 0.59 OD mg protein^−1 min
CC1(C)C(C=C(Cl)Cl)C1C(=O)OCc1cccc(Oc2ccccc2)c1 (centres unmarked) [bulk permethrin, permethrin] | – | – | – | – | – | – | – | LC50 [4]: 0.442 µg/mL (≈ 1.13 µM)
C[n+]1ccc(-c2cc[n+](C)cc2)cc1 [paraquat] | – | – | – | – | – | – | – | 96 h EC50 [5]: 0.48 µg/mL
